In patent US11998610B2, “Conjugates and methods of using the same” (Flagship Pioneering Innovations V, Inc., priority 2018, dated 2024):
Non-standard residues stand in square brackets, D forms with d. Residues, ends and D or L forms follow the SMILES beside them. *: point of attachment. Myristoyl = CCCCCCCCCCCCCC(=O)*; PhAc = O=C(Cc1ccccc1)*

Tests used:
[1] = Stability of conjugates in Simulated Gastric Fluid (SGF); type: in vitro ADME; conditions: simulated gastric fluid pH 1.6 with pepsin, 1 μM, 37° C.
Procedure: Assay 1. Stability of conjugates in Simulated Gastric Fluid (SGF). This assay was used to assess the stability of a conjugate in a stomach. Medium was prepared by dissolving 2 g of sodium chloride in 0.6 L in ultrapure water (MilliQ®, Millipore Sigma, Darmstadt, Germany). The pH was adjusted to 1.6 with 1N hydrochloric acid, and the volume was then adjusted to 1 L with purified water. 60 mg FaSSIF powder (Biorelevant™, London, UK) were dissolved in 500 mL buffer (above). Pepsin was added (0.1 mg/mL) (Millipore Sigma, Darmstadt, Germany), and the solution was stirred. The resulting SGF media were used fresh for each experiment. Test compounds were dissolved in DMSO stock to 1 mM. An aliquot of the DMSO stock solution was removed and diluted in the SGF Media in 15 mL falcon tubes to generate a total compound concentration of 1 μM. A 1 mL aliquot was immediately removed and diluted once with 1 volume of acetonitrile for T0 timepoint. The mixture was sealed and mixed at 37° C. in an incubator. Aliquots (1 mL) were removed at regular intervals and immediately quenched by the addition of 1 volume of acetonitrile. The resulting samples were analyzed by LC/MS to determine degradation rates in SGF.

[2] = Stability of conjugates in Simulated Intestinal Fluid (SIF); type: in vitro ADME; conditions: simulated intestinal fluid pH 6.7 with pancreatin, 1 μM, 37° C.
Procedure: Assay 2. Stability of conjugates in Simulated Intestinal Fluid (SIF). This assay was used to assess the stability of a conjugate in a small intestine. Phosphate buffer was prepared by dissolving 0.42 g of sodium hydroxide pellets and 3.95 g of monobasic sodium phosphate monohydrate and 6.19 g of sodium chloride in ultrapure water (MilliQ®, Millipore Sigma, Darmstadt, Germany). The pH was adjusted to 6.7 using aq. HCl and aq. NaOH, as necessary, and the solution was diluted with ultrapure water to produce 1 L of the pH 6.7 buffer. 112 mg FaSSIF powder (Biorelevant™, London, UK) was dissolved in 50 mL of the pH 6.7 buffer. 2 to 3 mL of the resulting solution were then added to 500 mg pancreatin (Millipore Sigma, Darmstadt, Germany). The resulting mixture was agitated by finger tapping the vessel containing the mixture until milky suspension formed. At this time, the remainder of the 50 mL FaSSiF/pH 6.7 buffer solution was added. The resulting suspension was flipped upside down 10 times to produce SIF, which was used fresh. Test compounds were dissolved in DMSO stock to 1 mM. An aliquot of the DMSO stock solution was removed and diluted in the SIF media in 15 mL falcon tubes to produce a mixture with a tested compound concentration of 1 μM. A 1 mL aliquot was immediately removed and diluted once with 1 volume of acetonitrile for T0 timepoint. The mixture was sealed and agitated at 37° C. in an incubator. Aliquots (1 mL) were removed at regular intervals and immediately quenched by the addition of 1 volume of acetonitrile. The resulting samples were analyzed by LC/MS to determine degradation rates

[3] = In vitro Colonic Material Stability Assay; type: in vitro ADME; conditions: colonic material slurry, anaerobic, 1 or 10 μM, 24 h
Procedure: Assay 3 In vitro Colonic Material Stability Assay. This assay was used to assess the stability of an acylated active agent in a large intestine. All experiments were performed in an anaerobic chamber containing 90% nitrogen, 5% hydrogen and 5% carbon dioxide. Colonic material was resuspended as a slurry (15% w/v final concentration) in pre-reduced, anaerobically sterilized dilution blanks (Anaerobe Systems AS-908). The colonic material was then inoculated into 96 well plates containing YCFAC media (Anaerobe Systems AS-680) or other suitable media (6.7 μL slurry into 1 mL total media). Compounds or groups of compounds were added to each individual well to reach a final analyte concentration of 1 or 10 μM, and the material was mixed by pipetting. Sample was removed after set timepoints (0, 120, 240, 480, 1440, 2880 minutes after initiation of the assay), quenched with acetonitrile containing internal standard, and analyzed by LC/MS.

[4] = test system: E. coli BL21(DE3); assay: Cell-based assay with ClbP with LCMS, ClbP negative strain; conditions: 10 μM compound, 37° C., 20 h
Procedure: (§1) This example is representative of the methods described in Example 97. ClbP was tested for its ability to activate compounds. […] Each of these three strains was struck out onto an appropriate solid media such as LB agar or BHI agar. The bacteria were then grown aerobically overnight at 37° C.
(§2) A single colony was isolated from the plate and inoculated into 10 mL LB. The liquid cultures were grown overnight aerobically at 37° C. with rocking on a nutator.
(§3) The saturated E. coli cultures were transferred into a biosafety cabinet. 5 μL of each culture was inoculated into fresh LB broth (200 μL total, 1:40 (v/v) dilution of the overnight culture), and the tested compound was added to a final concentration of 10 μM. To establish the native stability of the compound in media alone, the compound was also added to uninoculated media at a final concentration of 10 μM. Each compound was tested in duplicate with each strain or the media-alone incubation. The plate was sealed and incubated aerobically on a nutator at 37° C. for 20 h.
(§4) After 20 h, the reactions were stopped by addition of 200 μL acetonitrile. The contents of each well were mixed, and then the plate was centrifuged (4,000 rpm, 10 min). The plate was diluted serially to a final dilution of 1:100 first with Acetonitrile (10× dilution) and then with (4:1) Mobile Phase A-20 mM ammonium formate+water:Mobile Phase B-Isopropanol:Methanol:Water (4:4:2)+20 mM ammonium formate (10× dilution).
(§5) The amount of each remaining parent compound in each incubation was quantified by LC-MS analysis, with multiple-reaction monitoring targeting transitions specific to each parent compound.
(§6) The amount of compound present in the media-alone condition was normalized to 100%. The amount of parent compound present in the reaction with the ClbP-encoding E. coli (E. coli CFT073 ATCC 700928 and/or E. coli Nissle 1917) was compared to the amount present in the media-alone and expressed as a percent. Likewise, the amount of parent compound present in the reaction with the negative control E. coli BL21(DE3) was compared to the amount present in the media-alone and expressed as a percent.
(§7) In an ideal case, the amount of residual starting material in the reaction(s) with ClbP-encoding E. coli was <25% of the amount in the E. coli BL21(DE3) and media-alone conditions. In an acceptable case, the amount of residual starting material in the reaction(s) with ClbP-encoding E. coli was 25-75% of the amount in the E. coli BL21(DE3) and media-alone conditions. In a non-preferred case, the amount of residual starting material in the reaction(s) with ClbP-encoding E. coli was >75% of the amount in the E. coli BL21(DE3) and media-alone conditions.

[5] = test system: E. coli CFT073 ATCC 700928 and/or E. coli Nissle 1917; assay: Cell-based assay with ClbP with LCMS, ClbP positive strain; conditions: ClbP-encoding E. coli, 10 μM compound, 37° C., 20 h
Procedure: as §1, §2, §3, §4, §5, §6, §7

Row | Compound | Assay 1 (SGF) (% Remaining @ 1 hours) [1] | Assay 2 (SIF) (% @ Remaining 4 hours) [2] | Assay 3 (% Remaining at 24 h) [3] | % Remaining in ClbP Negative Relative to Media-Only [4] | % Remaining in ClbP Positve Relative to Media-Only [5]
1 | CCCCCCCCCCCCCC(=O)N[C@H](CC(N)=O)C(=O)N[C@H](C(=O)OC)C(C)C [Example 3, Methyl tetradecanoyl-D-asparaginyl-L-valinate] (Myristoyl-[dN]-Val-OMe) | C (>75% of the tested compound remaining) | C (>75% of the tested compound remaining) | B (25-75% of the tested compound remaining) | + (between 25-75% compound remaining in the 20 μM WT ClbP reaction relative to the no-enzyme control) | + (between 25-75% compound remaining in the 20 μM WT ClbP reaction relative to the no-enzyme control)
2 | COC(=O)[C@H](C)NC(=O)[C@@H](CC(N)=O)NC(=O)Cc1ccccc1 [Example 14, Methyl (2-phenylacetyl)-D-asparaginyl-L-alaninate] (PhAc-[dN]-Ala-OMe) | C (>75% of the tested compound remaining) | A (<25% of the tested compound remaining) | C (>75% of the tested compound remaining) | − (>75% compound remaining in the 20 μM WT ClbP reaction relative to the no-enzyme control) | + (between 25-75% compound remaining in the 20 μM WT ClbP reaction relative to the no-enzyme control)
3 | COC(=O)[C@H](C)NC(=O)[C@@H](CC(N)=O)NC(=O)c1ccccc1O [Example 16, Methyl (2-hydroxybenzoyl)-D-asparaginyl-L-alaninate] | C (>75% of the tested compound remaining) | A (<25% of the tested compound remaining) | B (25-75% of the tested compound remaining) | + (between 25-75% compound remaining in the 20 μM WT ClbP reaction relative to the no-enzyme control) | + (between 25-75% compound remaining in the 20 μM WT ClbP reaction relative to the no-enzyme control)
4 | COC(=O)[C@H](C)NC(=O)[C@@H](CC(N)=O)NC(=O)C(C)c1ccc(CC(C)C)cc1 (stereo partly drawn) [Example 17, Methyl (2-(4-isobutylphenyl)propanoyl)-D-asparaginyl-L-alaninate] | C (>75% of the tested compound remaining) | A (<25% of the tested compound remaining) | C (>75% of the tested compound remaining) | + (between 25-75% compound remaining in the 20 μM WT ClbP reaction relative to the no-enzyme control) | + (between 25-75% compound remaining in the 20 μM WT ClbP reaction relative to the no-enzyme control)
5 | CCCCCCCC(=O)N[C@H](CC(N)=O)C(=O)NCCCC(=O)OC [Example 43, Methyl (R)-4-(4-amino-2-octanamido-4-oxobutanamido)butanoate] | B (25-75% of the tested compound remaining) | B (25-75% of the tested compound remaining) | B (25-75% of the tested compound remaining) | − (>75% compound remaining in the 20 μM WT ClbP reaction relative to the no-enzyme control) | − (>75% compound remaining in the 20 μM WT ClbP reaction relative to the no-enzyme control)
6 | CCCCCCCC(=O)N[C@H](CC(N)=O)C(=O)N[C@@H](C)CCC(=O)Oc1ccc(Br)cc1 [Example 47, 4-bromophenyl (S)-4-((R)-4-amino-2-octanamido-4-oxobutanamido)pentanoate] | C (>75% of the tested compound remaining) | A (<25% of the tested compound remaining) | A (<25% of the tested compound remaining) | − (>75% compound remaining in the 20 μM WT ClbP reaction relative to the no-enzyme control) | − (>75% compound remaining in the 20 μM WT ClbP reaction relative to the no-enzyme control)
7 | CCCCCCCC(=O)N[C@H](CC(N)=O)C(=O)N[C@@H](C)CCC(=O)O[C@]1(CC)C(=O)OCc2c1cc1n(c2=O)Cc2c-1nc1ccc(O)cc1c2CC [Example 49, (S)-4,11-diethyl-9-hydroxy-3,14-dioxo-3,4,12,14-tetrahydro-1H-pyrano[3′,4′:6,7]indolizino[1,2-b]quinolin-4-yl (S)-4-((R)-4-amino-2-octanamido-4-oxobutanamido)pentanoate] | C (>75% of the tested compound remaining) | C (>75% of the tested compound remaining) | C (>75% of the tested compound remaining) | + (between 25-75% compound remaining in the 20 μM WT ClbP reaction relative to the no-enzyme control) | ++ (<25% compound remaining in the 20 μM WT ClbP reaction relative to the control)
8 | COCCOCCC(=O)N[C@H](CC(N)=O)C(=O)N[C@@H](C)C(=O)OC [Example 61, Methyl (3-(2-methoxyethoxy)propanoyl)-D-asparaginyl-L-alaninate] | C (>75% of the tested compound remaining) | B (25-75% of the tested compound remaining) | C (>75% of the tested compound remaining) | − (>75% compound remaining in the 20 μM WT ClbP reaction relative to the no-enzyme control) | + (between 25-75% compound remaining in the 20 μM WT ClbP reaction relative to the no-enzyme control)
